ChEMBL document CHEMBL1201862, “PubChem BioAssay data set” (2004)
Calls of active or inactive are those of the source.

What was measured:
Assay type in all cases: functional
[1] = biological target: Melanin-concentrating hormone receptor 1 (Homo sapiens, UniProt Q99705); assay: Late-stage fluorescence-based counterscreen for antagonists of the G-protein coupled receptor 7 (GPR7): cell-based dose response assay to identify antagonists of the melanin-concentrating hormone receptor 1 (MCHR1) Set 6.
Melanin-concentrating hormone receptor 1, sequence (Q99705 whole entry): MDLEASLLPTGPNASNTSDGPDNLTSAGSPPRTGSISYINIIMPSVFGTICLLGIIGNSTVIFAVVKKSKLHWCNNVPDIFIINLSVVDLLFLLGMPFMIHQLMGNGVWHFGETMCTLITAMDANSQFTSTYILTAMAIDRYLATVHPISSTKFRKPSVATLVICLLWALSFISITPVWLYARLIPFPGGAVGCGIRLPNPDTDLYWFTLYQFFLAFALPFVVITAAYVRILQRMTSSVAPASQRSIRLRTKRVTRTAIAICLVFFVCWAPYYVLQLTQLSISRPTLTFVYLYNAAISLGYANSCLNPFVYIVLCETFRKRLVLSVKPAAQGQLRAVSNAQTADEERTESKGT

[2] = biological target: Neuropeptides B/W receptor type 1 (Homo sapiens, UniProt P48145); assay: GPR7 antagonist potency, late-stage follow-up, cell-based, fluorescence, dose response, set 6 (AID 588583)
Neuropeptides B/W receptor type 1, sequence (P48145 whole entry): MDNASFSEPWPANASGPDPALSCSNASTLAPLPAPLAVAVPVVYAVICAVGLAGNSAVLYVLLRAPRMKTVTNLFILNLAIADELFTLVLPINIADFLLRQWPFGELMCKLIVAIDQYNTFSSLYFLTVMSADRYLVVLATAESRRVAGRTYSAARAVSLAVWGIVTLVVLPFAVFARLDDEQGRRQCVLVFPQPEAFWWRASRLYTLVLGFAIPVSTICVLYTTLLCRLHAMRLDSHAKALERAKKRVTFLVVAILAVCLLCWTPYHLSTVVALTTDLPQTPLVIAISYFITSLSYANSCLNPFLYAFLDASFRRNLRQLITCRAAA

[3] = biological target: T1, ATP-dependent translocase ABCB1 (Homo sapiens, UniProt P08183); assay: ABCG2 efflux pump inhibitor potency, dose response, Ig-MXP3 cells, JC-1, flow cytometry, set 2 (AID 504566); details: read-out: EC50_MICROM_;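 also: flow cytometry median green fluorescence of retained JC-1 dye; potency of efflux pump inhibition measured as rising substrate retention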
T1 sequence (P08183 whole entry): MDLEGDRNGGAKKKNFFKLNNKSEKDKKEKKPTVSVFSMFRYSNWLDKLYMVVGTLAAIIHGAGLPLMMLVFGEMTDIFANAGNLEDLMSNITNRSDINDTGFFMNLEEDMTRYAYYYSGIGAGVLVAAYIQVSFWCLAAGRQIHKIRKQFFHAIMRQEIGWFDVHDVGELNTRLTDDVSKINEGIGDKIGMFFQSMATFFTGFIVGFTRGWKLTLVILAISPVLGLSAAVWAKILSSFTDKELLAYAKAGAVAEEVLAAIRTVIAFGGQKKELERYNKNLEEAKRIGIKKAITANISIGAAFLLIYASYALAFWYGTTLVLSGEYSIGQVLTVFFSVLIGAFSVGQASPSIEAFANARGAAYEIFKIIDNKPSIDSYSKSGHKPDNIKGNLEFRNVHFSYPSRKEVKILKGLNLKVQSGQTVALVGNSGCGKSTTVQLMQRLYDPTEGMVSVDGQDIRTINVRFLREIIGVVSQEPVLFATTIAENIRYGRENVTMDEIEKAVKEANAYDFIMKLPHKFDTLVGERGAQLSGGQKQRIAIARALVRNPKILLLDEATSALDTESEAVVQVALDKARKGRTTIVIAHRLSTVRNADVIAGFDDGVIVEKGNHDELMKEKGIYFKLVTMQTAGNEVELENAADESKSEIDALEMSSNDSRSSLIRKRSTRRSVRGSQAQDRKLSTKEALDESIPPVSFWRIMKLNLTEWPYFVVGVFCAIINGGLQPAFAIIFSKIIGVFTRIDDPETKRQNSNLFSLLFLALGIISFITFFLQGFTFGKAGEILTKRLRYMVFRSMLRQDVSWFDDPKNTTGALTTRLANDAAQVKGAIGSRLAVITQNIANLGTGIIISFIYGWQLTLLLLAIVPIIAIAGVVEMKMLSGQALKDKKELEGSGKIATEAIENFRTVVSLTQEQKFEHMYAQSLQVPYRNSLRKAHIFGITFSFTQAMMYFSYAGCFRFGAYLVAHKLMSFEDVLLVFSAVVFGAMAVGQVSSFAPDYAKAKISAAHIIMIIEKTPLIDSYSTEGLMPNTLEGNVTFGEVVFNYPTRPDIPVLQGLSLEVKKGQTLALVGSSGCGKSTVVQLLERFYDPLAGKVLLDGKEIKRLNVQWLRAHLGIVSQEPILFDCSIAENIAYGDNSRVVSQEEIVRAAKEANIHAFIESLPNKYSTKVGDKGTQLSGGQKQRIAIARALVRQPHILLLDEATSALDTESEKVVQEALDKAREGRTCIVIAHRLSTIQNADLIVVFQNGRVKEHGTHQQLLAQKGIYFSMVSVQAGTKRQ

[4] = biological target: T1, ATP-dependent translocase ABCB1; assay: ABCB1 efflux inhibitor potency, dose response, Jurkat-DNR cells, JC-1, flow cytometry, set 2 (AID 504569); details: read-out: EC50_MICROM_;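 also: potency of pump inhibitors that raise cellular JC-1 green fluorescence up to the nicardipine level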
Interleukin-8 [5] = biological target: T2, Interleukin-8 (Homo sapiens, UniProt P10145); assay: Dose Response confirmation of uHTS small molecule hits for cystic fibrosis induced NFkb Inhibitors in a TNFa-induced IL8 counterscreen.; details: read-out: IC50_Mean
T2 sequence (P10145 whole entry): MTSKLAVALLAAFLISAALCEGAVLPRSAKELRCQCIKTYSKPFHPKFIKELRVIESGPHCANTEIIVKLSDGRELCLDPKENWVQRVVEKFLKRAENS

Interleukin-8 [6] = biological target: T2, Interleukin-8; assay: Dose Response confirmation of uHTS small molecule hits for cystic fibrosis induced NFkb Inhibitors in a PAF-induced IL8 counterscreen.; details: read-out: IC50_Mean

Row | IC50 [1] | IC50 [2] | SMILES | other results
1 | 506 nM (active) | 506 nM (active) | COc1ccc(Oc2c(Cl)cnn(Cc3ccccc3Br)c2=O)cc1 | –
2 | 326 nM (active) | 326 nM (active) | CC(C#N)(c1ccccc1)c1c(Br)cnn(Cc2cccc3ccccc23)c1=O (stereo not drawn) | –
3 | – | – | O=C(c1ccccc1Cl)N1CCN(c2cc(-c3ccccc3)nc3cc(-c4cccc(Cl)c4)nn23)CC1 | EC50 [3]: 1150 nM (active); EC50 [4]: 1070 nM (active)
4 | – | – | Fc1cccc(Cl)c1/C=N/Nc1c(Cl)cncc1Cl | IC50 (Interleukin-8 [5]): > 79000 nM (inactive); IC50 (Interleukin-8 [6]): 14800 nM (inactive)
